pIC50: −log10 of the molar value. Where two headings read alike, the source gives them in different places.
Assays:
[1] = test system: cardiac markers (NKX2.5, GATA4, Troponin I, Troponin T, MHCα) in WJCM; assay: qRT-PCR gene expression of cardiac-specific markers in WJCM
Experimental: Differentiation of WJMSCs was done using a proprietary combination of DNMT and HDAC inhibitors in KO-DMEM/F-12 containing 10% FBS for 48 h. Induction media was replaced with culture media i.e. KO-DMEM/F-12 with 1X GlutaMAX and, 10% FBS after 48 h for 7 days[23].
WJMSC-derived cardiomyocytes (WJCM) and H9C2 were treated with NMJ and QMJ analogues for 24 h. […] To illustrate the toxicity specific to cardiac cells and not a general cytotoxicity, WJMSCs were treated with positive cardiotoxic drugs.
Total ribonucleic acid (RNA) was isolated using RNAiso Plus (TaKaRa, Shiga, Japan) followed by cDNA conversion using PrimeScript™ 1st strand cDNA synthesis kit (TaKaRa, Shiga, Japan). Quantitative reverse transcriptase-polymerase chain reaction (qRT-PCR) was performed by using TB Green™ Premix Ex Taq™ II (Tli RNase H Plus; TaKaRa, Shiga, Japan) for cardiac markers in a QuantStudio™ 5 real-time PCR Systems (Applied Biosystems, USA). All the primers were purchased from Sigma Aldrich, Bangalore, India (Table 1). The relative gene expression was calculated using 2^-∆∆CT and GAPDH, a housekeeping gene was used as endogenous control[52],[53].

[2] = test system: WJMSCs; assay: MTT cell viability assay in undifferentiated WJMSCs; format: cell-based, human; conditions: 24 h; Dox 1 µM, 5FU 1 µM, Cis 5 µM; undifferentiated cells
Experimental: Similarly, the toxicity of these compounds in terms of the viability of cells was estimated by using the MTT assay and cell counting kit-8 (CCK-8) assay. For MTT assay, after 24 h of treatments, MTT (5 mg/ml of PBS; HiMedia, India) was added, and cells were incubated for 2 h at 37 °C. The formazan crystals that were formed after the incubation were dissolved using dimethyl sulfoxide (DMSO). For the CCK-8 assay, 10 μL of CCK-8 solution (Boster Biological Technology, Pleasanton, CA, USA) was added to each well and incubated for 2 h at 37 °C.

[3] = test system: WJMSCs; assay: CCK-8 assay in undifferentiated WJMSCs; format: cell-based, human; conditions: 24 h; Dox 1 µM, 5FU 1 µM, Cis 5 µM; undifferentiated cells
Experimental: Mesenchymal stem cells from Wharton's jelly (WJMSCs) were isolated from the Wharton's jelly of the human umbilical cord via enzymatic digestion as described previously with slight modifications. Experiments were performed after obtaining clearance from Institutional Ethical Committee ([…] Hospital, Bangalore, India. Informed consent was obtained from the donor and all the experiments were performed in accordance with relevant guidelines and regulations. Rat cardiomyoblast cell line, H9C2 was obtained from National Centre for Cell Science (NCCS), Pune, India. WJMSCs were maintained in KnockoutTM Dulbecco's Modified Eagle Medium/Nutrient Mixture F-12 (KO-DMEM/F-12; Gibco, MA, USA) with 10% Fetal bovine serum (FBS, Gibco, MA, USA), 1X GlutaMAX (Gibco, MA, USA), and 1X Antibiotic Antimycotic Solution (Gibco, MA, USA). H9C2 cells were cultured in Dulbecco's Modified Eagle Medium-High Glucose (DMEM-HG; Gibco, MA, USA) supplemented with 10% FBS and 1X Antibiotic-Antimycotic solution at 37 °C in 5% CO2 incubator. […] Similarly, the toxicity of these compounds in terms of the viability of cells was estimated by using the MTT assay and cell counting kit-8 (CCK-8) assay. For MTT assay, after 24 h of treatments, MTT (5 mg/ml of PBS; HiMedia, India) was added, and cells were incubated for 2 h at 37 °C. The formazan crystals that were formed after the incubation were dissolved using dimethyl sulfoxide (DMSO). For the CCK-8 assay, 10 μL of CCK-8 solution (Boster Biological Technology, Pleasanton, CA, USA) was added to each well and incubated for 2 h at 37 °C. The absorbance for MTT and CCK-8 assay was measured at 570 nm and 450 nm respectively using the EnSightTM Multimode plate reader (Perkin Elmer, MA, USA)[49],[50].

[4] = test system: WJMSCs; assay: LDH release assay in undifferentiated WJMSCs; format: cell-based, human; conditions: 24 h; Dox 1 µM, 5FU 1 µM, Cis 5 µM; undifferentiated cells
Experimental: Mesenchymal stem cells from Wharton's jelly (WJMSCs) were isolated from the Wharton's jelly of the human umbilical cord via enzymatic digestion as described previously with slight modifications. Experiments were performed after obtaining clearance from Institutional Ethical Committee ([…] Hospital, Bangalore, India. Informed consent was obtained from the donor and all the experiments were performed in accordance with relevant guidelines and regulations. Rat cardiomyoblast cell line, H9C2 was obtained from National Centre for Cell Science (NCCS), Pune, India. WJMSCs were maintained in KnockoutTM Dulbecco's Modified Eagle Medium/Nutrient Mixture F-12 (KO-DMEM/F-12; Gibco, MA, USA) with 10% Fetal bovine serum (FBS, Gibco, MA, USA), 1X GlutaMAX (Gibco, MA, USA), and 1X Antibiotic Antimycotic Solution (Gibco, MA, USA). H9C2 cells were cultured in Dulbecco's Modified Eagle Medium-High Glucose (DMEM-HG; Gibco, MA, USA) supplemented with 10% FBS and 1X Antibiotic-Antimycotic solution at 37 °C in 5% CO2 incubator. […] The experiment was performed as per the manufacturer's protocol. Absorbance was taken at 490 nm and 680 nm (background signal) using multimode plate reader. LDH activity was calculated by subtracting absorbance taken at 680 nm from 490 nm.

[5] = test system: H9C2 cells; assay: MTT cell viability assay in H9C2 cells; format: cell-based, rat; conditions: 24 h; analogues at Vero IC50 concentration; Dox 1 µM
Experimental: (§1) Similarly, the toxicity of these compounds in terms of the viability of cells was estimated by using the MTT assay and cell counting kit-8 (CCK-8) assay. For MTT assay, after 24 h of treatments, MTT (5 mg/ml of PBS; HiMedia, India) was added, and cells were incubated for 2 h at 37 °C. The formazan crystals that were formed after the incubation were dissolved using dimethyl sulfoxide (DMSO). For the CCK-8 assay, 10 μL of CCK-8 solution (Boster Biological Technology, Pleasanton, CA, USA) was added to each well and incubated for 2 h at 37 °C. The absorbance for MTT and CCK-8 assay was measured at 570 nm and 450 nm respectively using the EnSight™ Multimode plate reader (Perkin Elmer, MA, USA)[49],[50].

[6] = test system: H9C2 cells; assay: LDH release assay in H9C2 cells; format: cell-based, rat; conditions: 24 h; analogues at Vero IC50 concentration
Experimental: (§2) The experiment was performed as per the manufacturer’s protocol. Absorbance was taken at 490 nm and 680 nm (background signal) using multimode plate reader. LDH activity was calculated by subtracting absorbance taken at 680 nm from 490 nm.

[7] = test system: WJMSC-derived cardiomyocytes (WJCM); assay: LDH release assay in WJCM; format: cell-based, human; conditions: 24 h; analogues at Vero IC50 concentration
Experimental: as §2

[8] = test system: cardiomyocytes (WJCM and H9C2 cells); assay: Cardiotoxicity across parameters as summarised in the discussion (WJCM and H9C2 cells); format: cell-based, human and rat; conditions: for overall cardiotoxicity across the parameters analyzed: analogues at Vero IC50 concentration, 24 h
Source text: We investigated the effects of 3-hydroxyflavone (QMJ-2, QMJ-5, and QMJ-6) and cinnamyl sulfonamide-hydroxamate (NMJ-1, NMJ-2, NMJ-3) in WJCM and H9C2 cells using the concentrations reported for non-cancerous Vero cells. The prerequisite for any synthesized drug molecules is that they should be nontoxic to cardiac cells.

[9] = test system: Vero, a non-cancerous cell line; design: method as in PMID 25824412, PMID 30687400; conditions: read-out: IC50 in Vero cells; cited from earlier work
[10] = test system: colorectal cancer; design: method as in PMID 25824412, PMID 30687400; conditions: previously reported studies; cited from earlier work
[11] = test system: WJMSC-derived cardiomyocytes (WJCM); assay: MTT and CCK-8 cell viability assays in WJCM; format: cell-based, human; conditions: 24 h; analogues at Vero IC50 concentration; Dox 1 µM
Experimental: as §1

[12] = qRT-PCR, analogues at Vero IC50 concentration, Dox, 5FU, Cis as positive cardiotoxic drugs
[13] = qRT-PCR, analogues at Vero IC50 concentration
[14] = discussion summary, cell model not specified

O=c1[nH]cc(F)c(=O)[nH]1 [5FU, 5-fluorouracil]
cardiac marker gene expression in WJCM (all markers together) [1, 12]: reduced all the cardiac markers expression drastically
MTT cell viability in WJMSCs [2]: no significant difference
CCK-8 in WJMSCs [3]: no significant difference
LDH release in WJMSCs [4]: no significant difference

O=C(/C=C/c1ccc(S(=O)(=O)NCc2cccs2)cc1)NO [NMJ-1]
decrease in viability of H9C2 cells (MTT) [5]: 10–20%
LDH release in H9C2 cells [6]: increase in LDH
LDH release in WJCM [7]: increase in LDH
GATA4 gene expression in WJCM [1, 13]: decreased the expression
MHCα gene expression in WJCM [1, 13]: decreased the expression
Troponin I gene expression in WJCM [1, 13]: decreased the expression
cardiac marker gene expression in WJCM (all markers together) [1, 12]: drastic reduction
overall cardiotoxicity across the parameters analyzed [8]: cardiotoxic
ROS level in treated cardiomyocytes [8, 14]: increased ROS levels
active mitochondria status in treated cardiomyocytes [8, 14]: loss of mitochondria
cytotoxic effect against cardiomyocytes by MTT, CCK-8 and LDH assay [8, 14]: induced toxicity
intracellular calcium level in treated cardiomyocytes [8, 14]: increased the level
pIC50 [9]: 5.01
concentration found effective against cancer [10]: 5.07 µM

Cc1ccc(-c2oc3cc(C)ccc3c(=O)c2O)cc1 [QMJ-5, 3-Hydroxy-7-methyl-2-(4-methylphenyl)-4H-1-benzopyran-4-one]
decrease in viability of H9C2 cells (MTT) [5]: 10–20%
LDH release in H9C2 cells [6]: increase in LDH
LDH release in WJCM [7]: increase in LDH
GATA4 gene expression in WJCM [1, 13]: decreased the expression
MHCα gene expression in WJCM [1, 13]: decreased the expression
Troponin I gene expression in WJCM [1, 13]: decreased the expression
cardiac marker gene expression in WJCM (all markers together) [1, 12]: drastic reduction
overall cardiotoxicity across the parameters analyzed [8]: cardiotoxic
ROS level in treated cardiomyocytes [8, 14]: increased ROS levels
active mitochondria status in treated cardiomyocytes [8, 14]: loss of mitochondria
cytotoxic effect against cardiomyocytes by MTT, CCK-8 and LDH assay [8, 14]: induced toxicity
intracellular calcium level in treated cardiomyocytes [8, 14]: increased the level
pIC50 [9]: 4.25
concentration found effective against cancer [10]: 27.4 µM

Cc1ccc(-c2oc3ccccc3c(=O)c2O)cc1 [QMJ-2, 3-hydroxy-2-(4-methylphenyl)-4H-1-benzopyran-4-one]
decrease in viability of H9C2 cells (MTT) [5]: 10–20%
LDH release in H9C2 cells [6]: increase in LDH
LDH release in WJCM [7]: increase in LDH
cardiac marker gene expression in WJCM (all markers together) [1]: drastic reduction
GATA4 gene expression in WJCM [1, 13]: decreased the expression
MHCα gene expression in WJCM [1, 13]: decreased the expression
Troponin I gene expression in WJCM [1, 13]: decreased the expression
Troponin T gene expression in WJCM, result in words [1, 13]: milder increase
overall cardiotoxicity across the parameters analyzed [8]: cardiotoxic
ROS level in treated cardiomyocytes [8, 14]: increased ROS levels
active mitochondria status in treated cardiomyocytes [8, 14]: loss of mitochondria
cytotoxic effect against cardiomyocytes by MTT, CCK-8 and LDH assay [8, 14]: induced toxicity
intracellular calcium level in treated cardiomyocytes [8, 14]: increased the level
pIC50 [9]: 3.85
concentration found effective against cancer [10]: 68 µM

COc1cccc2c1C(=O)c1c(O)c3c(c(O)c1C2=O)C[C@@](O)(C(=O)CO)C[C@@H]3O[C@H]1C[C@H](N)[C@H](O)[C@H](C)O1 [Dox, doxorubicin, reference compound]
decrease in viability of H9C2 cells (MTT) [5]: ~25%
toxicity / cell viability in WJCM (MTT, CCK-8), result in words [11]: reduced cell viability drastically
cardiac marker gene expression in WJCM (all markers together) [1, 12]: reduced all the cardiac markers expression drastically
MTT cell viability in WJMSCs [2]: no significant difference
CCK-8 in WJMSCs [3]: no significant difference
LDH release in WJMSCs [4]: no significant difference
NO production / NO levels [8, 14]: reduced NO production
ROS level in treated cardiomyocytes [8, 14]: increased ROS level
active mitochondria status in treated cardiomyocytes [8, 14]: affected cardiomyocyte mitochondrial activity
intracellular calcium level in treated cardiomyocytes [8, 14]: alternation in calcium

N.N.[Cl][Pt][Cl] [Cis, cisplatin]
cardiac marker gene expression in WJCM (all markers together) [1]: reduced all the cardiac markers expression drastically
CCK-8 in WJMSCs [3]: no significant difference
LDH release in WJMSCs [4]: no significant difference

Source: paper PMC9734143, “An efficient human stem cells derived cardiotoxicity testing platform for testing oncotherapeutic analogues of quercetin and cinnamic acid” (Scientific Reports, 2022)
